Columns and labels:
Assay in all cases: Test C pre-/postemergence greenhouse test
Assay type in all cases: in vivo
Conditions in all cases: scale 0 to 100
[1] = system: blackgrass (Alopecurus myosuroides)
Text: (§1) Seeds of plant species selected from blackgrass (Alopecurus myosuroides), ryegrass, Italian (Lolium multiflorum), wheat, winter (winter wheat, Triticum aestivum), galium (catchweed bedstraw, Galium aparine), corn (Zea mays), crabgrass, large (Digitaria sanguinalis), foxtail, giant (Setaria faberii), johnsongrass (Sorghum halepense), lambsquarters (Chenopodium album), morningglory (Ipomoea coccinea), nutsedge, yellow (Cyperus esculentus), pigweed (Amaranthus retroflexus), ragweed (common ragweed, Ambrosia elatior), soybean (Glycine max), barnyardgrass (Echinochloa crus-galli), oilseed rape (Brassica napus), waterhemp (common waterhemp, Amaranthus rudis), pigweed, palmer (Amaranthus palmeri), kochia (Kochia scoparia), oat, wild (Avena fatua), surinam grass (Brachiaria decumbens), windgrass (Apera spica-venti), poinsettia, wild (Euphorbia heterophylla) and velvetleaf (Abutilon theophrasti) were planted into a silt loam soil and treated preemergence with test chemicals formulated in a non-phytotoxic solvent mixture which included a surfactant.
(§2) At the same time, plants selected from these crop and weed species and also chickweed (common chickweed, Stellaria media), buckwheat, wild (Polygonum convolvulus), mustard, wild (Sinapis arvensis), field poppy (Papaver rhoeas), field violet (Viola arvensis), nightshade (eastern black nightshade, Solanum ptycanthum), speedwell (bird's-eye speedwell, Veronica persica), horseweed (Conyza canadensis), cutleaf geranium (Geranium dissectum), and Canada thistle (Cirsium arvense) were planted in pots containing Redi-Earth® planting medium (Scotts Company, 14111 Scottslawn Road, Marysville, Ohio 43041) comprising spaghnum peat moss, vermiculite, wetting agent and starter nutrients and treated with postemergence applications of test chemicals formulated in the same manner. Plants ranged in height from 2 to 18 cm (1- to 4-leaf stage) for postemergence treatments. Treated plants and controls were maintained in a greenhouse for 13 to 21 d, after which time all species were compared to controls and visually evaluated. Plant response ratings, summarized in Table C-1 (postemergence) and C-2 (preemergence), are based on a scale of 0 to 100 where 0 is no effect and 100 is complete control. A dash (-) response means no test result.

[2] = system: crabgrass, large (Digitaria sanguinalis)
Text: as §1, §2

[3] = system: foxtail, giant (Setaria faberii)
Text: as §1, §2

[4] = system: lambsquarters (Chenopodium album)
Text: as §1, §2

[5] = system: morningglory (Ipomoea coccinea)
Text: as §1, §2

[6] = system: oilseed rape (Brassica napus)
Text: as §1, §2

[7] = system: ragweed (common ragweed, Ambrosia elatior)
Text: as §1, §2

[8] = system: ryegrass, Italian (Lolium multiflorum)
Text: as §1, §2

soybean (Glycine max) = system: soybean (Glycine max)
Text: as §1, §2

[9] = system: velvetleaf (Abutilon theophrasti)
Text: as §1, §2

[10] = system: wheat, winter (winter wheat, Triticum aestivum)
Text: as §1, §2

Cc1ccc2ccc(C)c(-c3c(O)c(Cl)nn(C)c3=O)c2c1 [Cpd. No. 20, 6-chloro-4-(2,7-dimethyl-1-naphthalenyl)-5-hydroxy-2-methyl-3(2H)-pyridazinone]
65: Plant response rating, Ragweed ([7]; Preemergence, 61 g ai/ha) | Plant response rating, Ryegrass, Italian ([8]; Postemergence, 16 g ai/ha)
20: Plant response rating, Blackgrass ([1]; Postemergence, 16 g ai/ha) | Plant response rating, Blackgrass ([1]; Preemergence, 61 g ai/ha) | Plant response rating, Soybean (soybean (Glycine max); Postemergence, 125 g ai/ha) | Plant response rating, Soybean (soybean (Glycine max); Preemergence, 62 g ai/ha)
80: Plant response rating, Crabgrass, Large ([2]; Postemergence, 125 g ai/ha) | Plant response rating, Lambsquarters ([4]; Preemergence, 61 g ai/ha)
10: Plant response rating, Soybean (soybean (Glycine max); Postemergence, 31 g ai/ha) | Plant response rating, Soybean (soybean (Glycine max); Postemergence, 62 g ai/ha)
75: Plant response rating, Lambsquarters ([4]; Postemergence, 16 g ai/ha) | Plant response rating, Lambsquarters ([4]; Preemergence, 31 g ai/ha) | Plant response rating, Velvetleaf ([9]; Postemergence, 31 g ai/ha)
90: Plant response rating, Blackgrass ([1]; Preemergence, 125 g ai/ha) | Plant response rating, Lambsquarters ([4]; Postemergence, 31 g ai/ha) | Plant response rating, Ragweed ([7]; Postemergence, 31 g ai/ha) | Plant response rating, Velvetleaf ([9]; Postemergence, 125 g ai/ha)
45: Plant response rating, Blackgrass ([1]; Postemergence, 125 g ai/ha)
98: Plant response rating, Foxtail, Giant ([3]; Preemergence, 61 g ai/ha) | Plant response rating, Ragweed ([7]; Postemergence, 125 g ai/ha) | Plant response rating, Ryegrass, Italian ([8]; Preemergence, 61 g ai/ha)
85: Plant response rating, Blackgrass ([1]; Preemergence, 31 g ai/ha) | Plant response rating, Blackgrass ([1]; Preemergence, 62 g ai/ha) | Plant response rating, Foxtail, Giant ([3]; Postemergence, 31 g ai/ha) | Plant response rating, Foxtail, Giant ([3]; Postemergence, 62 g ai/ha) | Plant response rating, Morningglory ([5]; Preemergence, 31 g ai/ha) | Plant response rating, Ragweed ([7]; Postemergence, 16 g ai/ha) | Plant response rating, Ryegrass, Italian ([8]; Postemergence, 31 g ai/ha) | Plant response rating, Velvetleaf ([9]; Postemergence, 62 g ai/ha) | Plant response rating, Velvetleaf ([9]; Preemergence, 61 g ai/ha)
0: Plant response rating, Oilseed Rape ([6]; Postemergence, 16 g ai/ha) | Plant response rating, Oilseed Rape ([6]; Postemergence, 31 g ai/ha) | Plant response rating, Oilseed Rape ([6]; Postemergence, 62 g ai/ha) | Plant response rating, Oilseed Rape ([6]; Postemergence, 125 g ai/ha) | Plant response rating, Oilseed Rape ([6]; Preemergence, 31 g ai/ha) | Plant response rating, Oilseed Rape ([6]; Preemergence, 61 g ai/ha) | Plant response rating, Oilseed Rape ([6]; Preemergence, 62 g ai/ha) | Plant response rating, Oilseed Rape ([6]; Preemergence, 125 g ai/ha) | Plant response rating, Soybean (soybean (Glycine max); Postemergence, 16 g ai/ha) | Plant response rating, Soybean (soybean (Glycine max); Preemergence, 31 g ai/ha) | Plant response rating, Soybean (soybean (Glycine max); Preemergence, 61 g ai/ha) | Plant response rating, Wheat ([10]; Postemergence, 16 g ai/ha) | Plant response rating, Wheat ([10]; Postemergence, 31 g ai/ha) | Plant response rating, Wheat ([10]; Postemergence, 62 g ai/ha) | Plant response rating, Wheat ([10]; Postemergence, 125 g ai/ha) | Plant response rating, Wheat ([10]; Preemergence, 61 g ai/ha)
95: Plant response rating, Crabgrass, Large ([2]; Preemergence, 62 g ai/ha) | Plant response rating, Foxtail, Giant ([3]; Postemergence, 125 g ai/ha) | Plant response rating, Lambsquarters ([4]; Postemergence, 62 g ai/ha) | Plant response rating, Lambsquarters ([4]; Postemergence, 125 g ai/ha) | Plant response rating, Morningglory ([5]; Preemergence, 62 g ai/ha) | Plant response rating, Morningglory ([5]; Preemergence, 125 g ai/ha) | Plant response rating, Ragweed ([7]; Postemergence, 62 g ai/ha) | Plant response rating, Ryegrass, Italian ([8]; Postemergence, 62 g ai/ha) | Plant response rating, Ryegrass, Italian ([8]; Postemergence, 125 g ai/ha)
60: Plant response rating, Crabgrass, Large ([2]; Preemergence, 31 g ai/ha) | Plant response rating, Crabgrass, Large ([2]; Preemergence, 61 g ai/ha) | Plant response rating, Soybean (soybean (Glycine max); Preemergence, 125 g ai/ha) | Plant response rating, Wheat ([10]; Preemergence, 31 g ai/ha) | Plant response rating, Wheat ([10]; Preemergence, 62 g ai/ha)
70: Plant response rating, Crabgrass, Large ([2]; Postemergence, 62 g ai/ha) | Plant response rating, Foxtail, Giant ([3]; Postemergence, 16 g ai/ha) | Plant response rating, Morningglory ([5]; Preemergence, 61 g ai/ha) | Plant response rating, Velvetleaf ([9]; Postemergence, 16 g ai/ha) | Plant response rating, Wheat ([10]; Preemergence, 125 g ai/ha)
100: Plant response rating, Crabgrass, Large ([2]; Preemergence, 125 g ai/ha) | Plant response rating, Foxtail, Giant ([3]; Preemergence, 31 g ai/ha) | Plant response rating, Foxtail, Giant ([3]; Preemergence, 62 g ai/ha) | Plant response rating, Foxtail, Giant ([3]; Preemergence, 125 g ai/ha) | Plant response rating, Lambsquarters ([4]; Preemergence, 62 g ai/ha) | Plant response rating, Lambsquarters ([4]; Preemergence, 125 g ai/ha) | Plant response rating, Morningglory ([5]; Postemergence, 16 g ai/ha) | Plant response rating, Morningglory ([5]; Postemergence, 31 g ai/ha) | Plant response rating, Morningglory ([5]; Postemergence, 62 g ai/ha) | Plant response rating, Morningglory ([5]; Postemergence, 125 g ai/ha) | Plant response rating, Ragweed ([7]; Preemergence, 31 g ai/ha) | Plant response rating, Ragweed ([7]; Preemergence, 62 g ai/ha) | Plant response rating, Ragweed ([7]; Preemergence, 125 g ai/ha) | Plant response rating, Ryegrass, Italian ([8]; Preemergence, 31 g ai/ha) | Plant response rating, Ryegrass, Italian ([8]; Preemergence, 62 g ai/ha) | Plant response rating, Ryegrass, Italian ([8]; Preemergence, 125 g ai/ha) | Plant response rating, Velvetleaf ([9]; Preemergence, 31 g ai/ha) | Plant response rating, Velvetleaf ([9]; Preemergence, 62 g ai/ha) | Plant response rating, Velvetleaf ([9]; Preemergence, 125 g ai/ha)
30: Plant response rating, Blackgrass ([1]; Postemergence, 31 g ai/ha)
40: Plant response rating, Blackgrass ([1]; Postemergence, 62 g ai/ha) | Plant response rating, Crabgrass, Large ([2]; Postemergence, 16 g ai/ha) | Plant response rating, Crabgrass, Large ([2]; Postemergence, 31 g ai/ha)

From patent US12435044B2, “Pyridazinone herbicides and pyridazinone intermediates used to prepare a herbicide” (FMC Corporation, priority 2018, dated 2025)
